Data as given in patent publication US9604975B2, “Indolyl-pyridone derivatives having checkpoint kinase 1 inhibitory activity” (Vernalis (R&D) Ltd., priority 2009, dated 2017).

Target: T1, CHK1 (Homo sapiens, UniProt O14757)
T1 construct: His; purchased Invitrogen
T1 sequence (O14757 1-476): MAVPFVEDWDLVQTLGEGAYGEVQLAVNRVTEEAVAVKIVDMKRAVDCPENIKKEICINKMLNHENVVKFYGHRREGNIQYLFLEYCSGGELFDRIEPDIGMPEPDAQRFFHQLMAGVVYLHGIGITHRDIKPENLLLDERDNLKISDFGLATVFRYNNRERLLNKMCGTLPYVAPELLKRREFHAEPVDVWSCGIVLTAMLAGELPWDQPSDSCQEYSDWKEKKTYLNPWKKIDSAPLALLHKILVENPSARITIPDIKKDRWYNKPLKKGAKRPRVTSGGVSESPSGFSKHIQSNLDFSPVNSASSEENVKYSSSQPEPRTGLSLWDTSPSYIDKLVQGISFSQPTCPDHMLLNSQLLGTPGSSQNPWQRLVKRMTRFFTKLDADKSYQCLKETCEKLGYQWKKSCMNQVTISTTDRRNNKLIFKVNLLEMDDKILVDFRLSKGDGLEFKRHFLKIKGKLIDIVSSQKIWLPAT
Assay: CHK1 Enzyme Assay (phosphorylation of Chktide peptide, 33P-ATP filter assay)
Format: biochemical
Conditions: 12.5 nM His-CHK1, 0.01 mM ATP, 40 minutes at 30° C.; read-out: CHK1 Enzyme Activity (IC50 range)
Protocol: Assays for the CHK1 kinase activity were carried out by monitoring the phosphorylation of a synthetic peptide Chktide with the amino acid sequence, […]. The assay mixture containing the inhibitor and CHK1 enzyme was mixed together in a microtiter plate in a final volume of 50 μl and incubated for 40 minutes at 30° C.
The assay mixture contained 0.01 mM unlabeled ATP, 0.5 μCi ^33P-γ-ATP, 14.8 μM Chktide, 0.1 mg/mL BSA, 50 mM Hepes-NaOH pH 7.5 and 12.5 nM His-CHK1 (Invitrogen) enzyme. The reaction was stopped by adding 50 μL of 50 mM phosphoric acid. 90 μL of the mixture was transferred to a pre-wetted 96-well multi-screen MAPHNOB filtration plate (Millipore) and filtered on a vacuum manifold. The filter plate was washed with 3 successive additions of 200 μl 50 mM phosphoric acid and then with 100 μL methanol. The filtration plate was dried for 10 min at 65° C., scintillant added and phosphorylated peptide quantified in a scintillation counter (Trilux, PerkinElmer).

| IC50 [nM] | SMILES |
| --- | --- |
| 100 to 500 | Cc1ccc(Cn2cc(NC(=O)c3c[nH]c(=O)c(-c4cc5ccccc5[nH]4)c3)cn2)cc1 [Example 5, 5-(1H-Indol-2-yl)-6-oxo-1,6-dihydro-pyridine-3-carboxylic acid[1-(4-methyl-benzyl)-1H-pyrazol-4-yl]-amide] |
| < 100 | CC(C)(COc1ccc2[nH]c(-c3cc(NC(=O)c4cnn(Cc5ccccc5)c4)c[nH]c3=O)cc2c1)CN1CCOCC1 [Example 184, 1-Benzyl-1H-pyrazole-4-carboxylic acid {5-[5-(2,2-dimethyl-3-morpholin-4-yl-propoxy)-1H-indol-2-yl]-6-oxo-1,6-dihydro-pyridin-3-yl}-amide] |
| < 100 | O=C(Nc1c[nH]c(=O)c(-c2cc3cc(CNCCO)ccc3[nH]2)c1)c1cnn(Cc2ccccc2)c1 [Example 61] |
| 100 to 500 | Cc1[nH]c(=O)c(-c2cc3ccccc3[nH]2)cc1NC(=O)c1cnn(Cc2ccc(F)cc2)c1 [Example 32, 1-(4-Fluoro-benzyl)-1H-pyrazole-4-carboxylic acid [5-(1H-indol-2-yl)-2-methyl-6-oxo-1,6-dihydro-pyridin-3-yl]-amide] |
| 500 to 1500 | Cc1[nH]c(=O)c(-c2cc3ccccc3[nH]2)cc1C(=O)Nc1cnn(Cc2ccccc2)c1 [Example 17, 5-(1H-Indol-2-yl)-2-methyl-6-oxo-1,6-dihydro-pyridine-3-carboxylic acid (1-benzyl-1H-pyrazol-4-yl)-amide] |
| < 100 | C[C@@H]1CN(Cc2ccc3[nH]c(-c4cc(NC(=O)c5cnn([C@@H](C)c6ccccc6)c5)c[nH]c4=O)cc3c2)C[C@H](C)O1 [Example 163, 1-((S)-1-Phenyl-ethyl)-1H-pyrazole-4-carboxylic acid {5-[5-(cis-2,6-dimethyl-morpholin-4-ylmethyl)-1H-indol-2-yl]-6-oxo-1,6-dihydro-pyridin-3-yl}-amide] |
| < 100 | CC(c1ccc(F)cc1)n1cc(C(=O)Nc2c[nH]c(=O)c(-c3cc4cc(CN5CCCCC5)ccc4[nH]3)c2)cn1 (stereo not shown) [Example 88, 1-[1-(4-Fluoro-phenyl)-ethyl]-1H-pyrazole-4-carboxylic acid [6-oxo-5-(5-piperidin-1-ylmethyl-1-H-indol-2-yl)-1,6-dihydro-pyridin-3-yl]-amide] |
| < 100 | Cc1ccc(Cn2cc(C(=O)Nc3c[nH]c(=O)c(-c4cc5cc(CN6CCCC6)ccc5[nH]4)c3)cn2)cc1 [Example 41, 1-(4-Methyl-benzyl)-1H-pyrazole-4-carboxylic acid [6-oxo-5-(5-pyrrolidin-1-ylmethyl-1H-indol-2-yl)-1,6-dihydro-pyridin-3-yl]-amide] |
| < 100 | Cc1ccc(Cn2cc(C(=O)Nc3c[nH]c(=O)c(-c4cc5cc(CNCCO)ccc5[nH]4)c3)cn2)cc1 [Example 54, 1-(4-Methyl-benzyl)-1H-pyrazole-4-carboxylic acid {5-[5-[(2-hydroxy-ethylamino)-methyl]-1H-indol-2-yl}-6-oxo-1,6-dihydro-pyridin-3-yl]-amide] |
| 500 to 1500 | CCN(CC)CCOc1ccc2[nH]c(-c3cc(NC(=O)c4cnn(Cc5ccc(C(C)(C)C)cc5)c4)c[nH]c3=O)cc2c1 [Example 154] |
| < 100 | CN1CCN(Cc2ccc3[nH]c(-c4cc(NC(=O)c5cnn(Cc6ccc(Cl)cc6)c5)c[nH]c4=O)cc3c2)CC1 [Example 53, 1-(4-Chloro-benzyl)-1H-pyrazole-4-carboxylic acid {5-[5-(4-methyl-piperazin-1-ylmethyl)-1H-indol-2-yl]-6-oxo-1,6-dihydro-pyridin-3-yl}-amide] |
| < 100 | CCN(CC)CCOc1ccc2[nH]c(-c3cc(NC(=O)c4cnn(Cc5ccc(C(C)C)cc5)c4)c[nH]c3=O)cc2c1 [Example 155, 1-(4-Isopropylbenzyl)-1H-pyrazole-4-carboxylic acid {5-[5-(2-diethylaminoethoxy)-1H-indol-2-yl)-6-oxo-1,6-dihydropyridin-3-yl}-amide] |
| < 100 | C[C@H](c1ccccc1)n1cc(C(=O)Nc2c[nH]c(=O)c(-c3cc4ccccc4[nH]3)c2)cn1 [Example 161, 1-((R)-1-Phenyl-ethyl)-1H-pyrazole-4-carboxylic acid [5-(1H-indol-2-yl)-6-oxo-1,6-dihydro-pyridin-3-yl]-amide] |
| 100 to 500 | Cc1[nH]c(=O)c(-c2cc3ccccc3[nH]2)cc1NC(=O)c1cnn(Cc2cccc(F)c2)c1 [Example 30, 1-(3-Fluoro-benzyl)-1H-pyrazole-4-carboxylic acid [5-(1H-indol-2-yl)-2-methyl-6-oxo-1,6-dihydro-pyridin-3-yl]-amide] |
| < 100 | CCN(CCO)Cc1ccc2[nH]c(-c3cc(NC(=O)c4cnn(Cc5ccccc5)c4)c[nH]c3=O)cc2c1 [Example 56, 1-Benzyl-1H-pyrazole-4-carboxylic acid [5-(5-{[ethyl-(2-hydroxy-ethyl)-amino]-methyl}-1H-indol-2-yl)-6-oxo-1,6-dihydro-pyridin-3-yl]-amide] |
| < 100 | NCCOc1cccc2[nH]c(-c3cc(NC(=O)c4cnn(Cc5ccccc5)c4)c[nH]c3=O)cc12 [Example 158, 1-Benzyl-1H-pyrazole-4-carboxylic acid {5-[4-(2-amino-ethoxy)-1H-indol-2-yl]-6-oxo-1,6-dihydro-pyridin-3-yl}-amide] |
| < 100 | CC(c1ccccc1)n1cc(C(=O)Nc2c[nH]c(=O)c(-c3cc4cc(CN5C[C@@H](C)O[C@@H](C)C5)ccc4[nH]3)c2)cn1 (stereo partly drawn) [Example 91, 1-(1-Phenyl-ethyl)-1H-pyrazole-4-carboxylic acid {5-[5-(cis-2,6-dimethyl-morpholin-4-ylmethyl)-1H-indol-2-yl]-6-oxo-1,6-dihydro-pyridin-3-yl}-amide] |
| < 100 | CN(Cc1ccc2[nH]c(-c3cc(NC(=O)c4cnn(Cc5ccccc5)c4)c[nH]c3=O)cc2c1)C1CCCCC1 [Example 77] |
| < 100 | Cc1ccc(Cn2cc(C(=O)Nc3c[nH]c(=O)c(-c4cc5cc(OCCN(C)C)ccc5[nH]4)c3)cn2)cc1 [Example 132, 1-(4-Methyl-benzyl)-1H-pyrazole-4-carboxylic acid {5-[5-(2-dimethylamino-ethoxy)-1H-indol-2-yl]-6-oxo-1,6-dihydro-pyridin-3-yl}-amide] |
| < 100 | CN(C)CC1(COc2ccc3[nH]c(-c4cc(NC(=O)c5cnn(Cc6ccccc6)c5)c[nH]c4=O)cc3c2)CC1 [Example 188, 1-Benzyl-1H-pyrazole-4-carboxylic acid {5-[5-(1-dimethylaminomethyl-cyclopropylmethoxy)-1H-indol-2-yl]-6-oxo-1,6-dihydro-pyridin-3-yl}-amide] |
| < 100 | Cc1ccc(Cn2cc(C(=O)Nc3c[nH]c(=O)c(-c4cc5cc(OCC(C)(C)CN(C)C)ccc5[nH]4)c3)cn2)cc1 [Example 137, 1-(4-Methyl-benzyl)-1H-pyrazole-4-carboxylic acid {5-[5-(3-dimethylamino-2,2-dimethyl-propoxy)-1H-indol-2-yl]-6-oxo-1,6-dihydro-pyridin-3-yl}-amide] |
| < 100 | CC(c1ccccc1)n1cc(C(=O)Nc2c[nH]c(=O)c(-c3cc4cc(CN5CCOCC5)ccc4[nH]3)c2)cn1 (stereo not shown) [Example 86, 1-(1-Phenyl-ethyl)-1H-pyrazole-4-carboxylic acid [5-(5-morpholin-4-ylmethyl-1H-indol-2-yl)-6-oxo-1,6-dihydro-pyridin-3-yl]-amide] |
